Reference: ChEMBL document CHEMBL1806384, “Identification of benzofuran-4,5-diones as novel and selective non-hydroxamic acid, non-peptidomimetic based inhibitors of human peptide deformylase” (Bioorg Med Chem Lett, 2011)
Converted amounts (≈) assume the structure as drawn.

Key:
[1] = tested on: Haemophilus influenzae; test: Antibacterial activity against Haemophilus influenzae ATCC 49766; format: functional
[2] = tested on: Staphylococcus epidermidis; test: Antibacterial activity against Staphylococcus epidermidis ATCC 12228; format: functional
[3] = tested on: Streptococcus pyogenes; test: Antibacterial activity against Streptococcus pyogenes ATCC 19615; format: functional
[4] = tested on: Staphylococcus aureus; test: Antibacterial activity against Staphylococcus aureus ATCC 29213; format: functional
[5] = tested on: Enterococcus faecalis; test: Antibacterial activity against Enterococcus faecalis ATCC 29212; format: functional
[6] = tested on: Enterococcus faecium; test: Antibacterial activity against Enterococcus faecium ATCC 19434; format: functional
[7] = tested on: Cutibacterium acnes; test: Antibacterial activity against Propionibacterium acnes ATCC 11827; format: functional
[8] = tested on: Bacteroides fragilis; test: Antibacterial activity against Bacteroides fragilis ATCC 25285; format: functional
[9] = tested on: Escherichia coli; test: Antibacterial activity against Escherichia coli ATCC 25922; format: functional
[10] = tested on: Candida albicans; test: Antifungal activity against Candida albicans ATCC 90028; format: functional
[11] = tested on: Citrobacter freundii; test: Antibacterial activity against Citrobacter freundii ATCC 8090; format: functional
[12] = molecular target: T1, Peptide deformylase (Escherichia coli, UniProt Q9JN24); test: Inhibition of Escherichia coli peptide deformylase after 1 hr by fluorescence polarization based competition assay
T1 sequence (Q9JN24 whole entry): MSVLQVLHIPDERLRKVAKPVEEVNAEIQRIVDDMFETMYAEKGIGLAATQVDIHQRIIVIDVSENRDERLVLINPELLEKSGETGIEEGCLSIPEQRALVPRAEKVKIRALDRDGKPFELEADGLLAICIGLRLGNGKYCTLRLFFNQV

[13] = tested on: HL-60; test: Antitumor activity against human HL60 cells xenografted in athymic nude mouse assessed as tumor growth delay at 15 mg/kg, ip administered 3 times a week for 2 weeks; format: functional; details: route intraperitoneal
[14] = molecular target: T2, Peptide deformylase, mitochondrial (Homo sapiens) (UniProt Q9HBH1); test: Inhibition of human peptide deformylase at 100 uM after 1 hr by fluorescence polarization based competition assay
T2 sequence (whole entry): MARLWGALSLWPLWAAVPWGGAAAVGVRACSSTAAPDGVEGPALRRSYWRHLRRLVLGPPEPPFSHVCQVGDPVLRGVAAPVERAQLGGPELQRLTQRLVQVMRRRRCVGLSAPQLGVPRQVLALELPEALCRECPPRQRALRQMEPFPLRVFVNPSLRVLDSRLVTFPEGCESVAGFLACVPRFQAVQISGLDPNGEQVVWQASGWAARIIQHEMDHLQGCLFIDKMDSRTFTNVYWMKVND

[15] = molecular target: T3, Peptide deformylase (Escherichia coli) (UniProt Q9JN24); test: Inhibition of Escherichia coli peptide deformylase at 100 uM after 1 hr by fluorescence polarization based competition assay
T3 sequence (whole entry): T1 sequence (Q9JN24 whole entry)

[16] = tested on: Jurkat; test: Cytotoxicity against human Jurkat cells; format: functional, cell-based
[17] = molecular target: T4, Aminopeptidase N (Sus scrofa) (UniProt P15145); test: Inhibition of porcine kidney microsomal aminopeptidase N at 100 uM after 1 hr by fluorescence polarization based competition assay
T4 sequence (whole entry): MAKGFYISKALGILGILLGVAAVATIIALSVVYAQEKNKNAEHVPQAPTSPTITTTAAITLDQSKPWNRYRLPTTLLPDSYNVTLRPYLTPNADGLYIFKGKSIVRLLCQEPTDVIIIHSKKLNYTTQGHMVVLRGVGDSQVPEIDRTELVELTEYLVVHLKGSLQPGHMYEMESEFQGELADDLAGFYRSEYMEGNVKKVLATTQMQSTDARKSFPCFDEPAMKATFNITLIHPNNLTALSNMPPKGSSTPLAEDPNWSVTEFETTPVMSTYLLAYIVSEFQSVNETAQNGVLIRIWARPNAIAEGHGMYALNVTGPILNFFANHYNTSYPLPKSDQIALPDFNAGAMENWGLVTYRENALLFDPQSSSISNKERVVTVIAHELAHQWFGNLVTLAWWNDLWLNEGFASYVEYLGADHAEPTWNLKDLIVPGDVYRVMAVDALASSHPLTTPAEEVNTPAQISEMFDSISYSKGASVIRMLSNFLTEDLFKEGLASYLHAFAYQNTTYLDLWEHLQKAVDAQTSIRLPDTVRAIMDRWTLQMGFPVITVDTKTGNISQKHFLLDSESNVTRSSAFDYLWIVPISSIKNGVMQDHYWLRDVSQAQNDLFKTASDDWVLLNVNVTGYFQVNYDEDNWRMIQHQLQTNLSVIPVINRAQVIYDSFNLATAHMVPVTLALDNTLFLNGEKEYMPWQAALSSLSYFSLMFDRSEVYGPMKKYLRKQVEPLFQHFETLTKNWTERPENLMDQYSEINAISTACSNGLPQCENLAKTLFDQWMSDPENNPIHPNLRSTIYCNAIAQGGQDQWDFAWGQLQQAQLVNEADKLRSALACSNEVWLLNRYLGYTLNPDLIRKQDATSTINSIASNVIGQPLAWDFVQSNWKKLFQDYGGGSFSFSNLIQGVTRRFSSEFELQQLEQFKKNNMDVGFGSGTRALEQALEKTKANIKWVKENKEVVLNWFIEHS

[18] = tested on: HEK293; test: Cytotoxicity against human HEK293 cells; format: cell-based
[19] = tested on: HL-60; test: Cytotoxicity against human vincristine-resistant HL60 cells; format: functional, cell-based
[20] = Cytotoxicity against human CWR22 cells; format: functional, cell-based
[21] = molecular target: T5, Interstitial collagenase (Homo sapiens) (UniProt P03956); test: Inhibition of human recombinant MMP1 at 100 uM after 1 hr by fluorescence polarization based competition assay
T5 sequence (whole entry): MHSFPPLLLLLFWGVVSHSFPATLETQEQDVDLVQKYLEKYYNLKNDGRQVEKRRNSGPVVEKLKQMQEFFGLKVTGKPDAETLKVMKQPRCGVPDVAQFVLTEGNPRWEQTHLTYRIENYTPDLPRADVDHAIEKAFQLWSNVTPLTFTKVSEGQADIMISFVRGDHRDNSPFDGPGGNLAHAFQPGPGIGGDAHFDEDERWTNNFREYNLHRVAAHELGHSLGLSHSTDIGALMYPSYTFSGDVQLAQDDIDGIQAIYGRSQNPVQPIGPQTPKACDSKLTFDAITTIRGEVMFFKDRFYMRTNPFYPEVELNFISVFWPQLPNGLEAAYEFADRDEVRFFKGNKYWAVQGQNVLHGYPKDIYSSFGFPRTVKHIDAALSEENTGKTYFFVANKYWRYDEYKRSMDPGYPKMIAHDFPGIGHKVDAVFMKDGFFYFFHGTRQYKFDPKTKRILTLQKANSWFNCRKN

[22] = tested on: Y79; test: Cytotoxicity against human Y79 cells; format: functional, cell-based
[23] = Cytotoxicity against human ALL3 cells; format: functional, cell-based
[24] = Cytotoxicity against human Meso47 cells; format: functional, cell-based
[25] = tested on: MOLT-3; test: Cytotoxicity against human MOLT3 cells; format: functional, cell-based
[26] = tested on: Streptococcus pneumoniae; test: Antibacterial activity against Streptococcus pneumoniae ATCC 6301; format: functional
[27] = tested on: Enterobacter cloacae; test: Antibacterial activity against Enterobacter cloacae ATCC 13047; format: functional
[28] = molecular target: T6, Peptide deformylase, mitochondrial (Homo sapiens, UniProt Q9HBH1); test: Inhibition of human peptide deformylase after 1 hr by fluorescence polarization based competition assay
T6 sequence (Q9HBH1 whole entry): T2 sequence (whole entry)

[29] = tested on: HL-60; test: Cytotoxicity against human HL60 cells; format: functional, cell-based
[30] = molecular target: T2, Peptide deformylase, mitochondrial (Homo sapiens); test: Inhibition of human peptide deformylase at 10 uM after 1 hr by fluorescence polarization based competition assay

Compound | MIC [1] [µg/mL] | MIC [2] [µg/mL] | MIC [3] [µg/mL] | MIC [4] [µg/mL] | MIC [5] [µg/mL] | MIC [6] [µg/mL] | MIC [7] [µg/mL] | MIC [8] [µg/mL] | MIC [9] [µg/mL] | MIC [10] [µg/mL] | MIC [11] [µg/mL] | IC50 [12] [µM] | inhibition [14] [%] | inhibition [15] [%] | inhibition [17] [%] | IC50 [18] [µM] | IC50 [19] [µM] | IC50 [20] [µM] | inhibition [21] [%] | IC50 [22] [µM] | also measured
O=C(O)c1cn(C2CC2)c2cc(N3CCNCC3)c(F)cc2c1=O [CIPROFLOXACIN] | ≤ 0.12 | ≤ 0.12 | 0.25 (≈ 0.754 µM) | 0.5 (≈ 1.51 µM) | 0.25 (≈ 0.754 µM) | 4 (≈ 12.1 µM) | 0.25 (≈ 0.754 µM) | 4 (≈ 12.1 µM) | ≤ 0.12 | > 64 | ≤ 0.12 | – | – | – | – | – | – | – | – | – | –
COc1cc(C(=O)c2coc3c2C(=O)C(=O)C(Br)=C3Br)cc(OC)c1OC | – | – | – | – | – | – | – | – | – | – | – | > 100 | 100 | 32 | 50 | 16 | 12 | 21 | 38 | 33 | Activity [13]: 40%; IC50 [16]: 2.8 µM; IC50 [23]: 10 µM; IC50 [24]: 37 µM; IC50 [25]: 2.9 µM
C[C@@H](O)[C@H]1C(=O)N2C(C(=O)O)=C(SCCNC=N)C[C@H]12 [IMIPENEM ANHYDROUS] | 1 (≈ 3.34 µM) | ≤ 0.12 | ≤ 0.12 | ≤ 0.12 | 0.5 (≈ 1.67 µM) | 2 (≈ 6.68 µM) | ≤ 0.12 | ≤ 0.12 | ≤ 0.12 | > 64 | 1 (≈ 3.34 µM) | – | – | – | – | – | – | – | – | – | MIC [26]: ≤ 0.12 µg/mL; MIC [27]: 1 µg/mL (≈ 3.34 µM)
COc1ccc(C(=O)c2coc3c2C(=O)C(=O)C(Cl)=C3Cl)cc1 | > 64 | > 64 | > 64 | > 64 | > 64 | > 64 | > 64 | > 64 | > 64 | > 64 | > 64 | > 100 | 88 | 1 | 50 | 30 | 43 | 50 | 0 | 66 | MIC [26]: 16 µg/mL (≈ 45.6 µM); IC50 [16]: 6.1 µM; IC50 [23]: 27 µM; IC50 [24]: 100 µM; IC50 [28]: 15 µM; IC50 [29]: 10 µM; MIC [27]: > 64 µg/mL; IC50 [25]: 4.1 µM
O=C1C(=O)c2c(C(=O)c3ccccc3)coc2C(Cl)=C1Cl | > 64 | > 64 | > 64 | > 64 | > 64 | > 64 | > 64 | > 64 | > 64 | > 64 | > 64 | > 100 | 100 | 65 | 101 | 100 | 100 | 72 | 41 | 100 | MIC [26]: 4 µg/mL (≈ 12.5 µM); inhibition [30]: 90%; IC50 [23]: 69 µM; IC50 [24]: 100 µM; MIC [27]: > 64 µg/mL; IC50 [25]: 31 µM
